Assay results taken from PubChem BioAssay (NCI).
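In this assay, cells in 96-well plates receive the compound at five concentrations for 48 hours. Endpoints are linearly interpolated between the surrounding concentrations. GI50 is the concentration that inhibits growth by half. Definition used: TGI = concentration required for complete inhibition of growth.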

Experiments:
Assay in all cases: NCI tumour cell line growth inhibition, 48 h
DMS 114 small cell lung = tested on: DMS 114 small cell lung
DMS 273 small cell lung = tested on: DMS 273 small cell lung
KM20L2 colon = tested on: KM20L2 colon
LXFL 529 NSCLC = tested on: LXFL 529 NSCLC
M19-MEL melanoma = tested on: M19-MEL melanoma
SNB-78 CNS = tested on: SNB-78 CNS
XF 498 CNS = tested on: XF 498 CNS
HOP-18 NSCLC = tested on: HOP-18 NSCLC
RXF-631 renal = tested on: RXF-631 renal

COc1cc(/C=C(\C#N)C(N)=C(C#N)C#N)cc(O)c1O
TGI (DMS 114 small cell lung): > 100 µM
TGI (DMS 273 small cell lung): > 100 µM
TGI (KM20L2 colon): > 100 µM
TGI (LXFL 529 NSCLC): > 100 µM
TGI (M19-MEL melanoma): > 100 µM
TGI (SNB-78 CNS): > 100 µM
TGI (XF 498 CNS): > 100 µM

COc1ccc(C2CCc3cc4c(cc3/C2=N/OC(C)=O)OCO4)cc1OC (centres undefined)
TGI (DMS 114 small cell lung): 51.9 µM
TGI (DMS 273 small cell lung): 78.1 µM
TGI (HOP-18 NSCLC): > 100 µM
TGI (KM20L2 colon): 72.3 µM
TGI (LXFL 529 NSCLC): > 100 µM
TGI (M19-MEL melanoma): 71 µM
TGI (RXF-631 renal): > 100 µM
TGI (SNB-78 CNS): > 100 µM
TGI (XF 498 CNS): 57.5 µM

Cc1cc(Cl)cc2c1NC(=O)C2=O (tested in a mixture with another compound)
TGI (DMS 114 small cell lung): 72.1 µM
TGI (DMS 273 small cell lung): > 100 µM
TGI (HOP-18 NSCLC): > 100 µM
TGI (KM20L2 colon): > 100 µM
TGI (LXFL 529 NSCLC): > 100 µM
TGI (M19-MEL melanoma): 28.8 µM
TGI (SNB-78 CNS): 91.1 µM
TGI (XF 498 CNS): 62.4 µM

COC(=O)CC(C(C(C)=O)C(=O)OCc1ccccc1)N1C(=O)OCC1c1ccccc1 (centres undefined)
TGI (DMS 114 small cell lung): > 100 µM
TGI (DMS 273 small cell lung): > 100 µM
TGI (KM20L2 colon): > 100 µM
TGI (LXFL 529 NSCLC): > 100 µM
TGI (M19-MEL melanoma): > 100 µM
TGI (RXF-631 renal): > 100 µM
TGI (XF 498 CNS): > 100 µM

C=[CH][Sn]([CH]=C)([O]c1cccc2cccnc12)[O]c1cccc2cccnc12
GI50 (KM20L2 colon): 2.26 µM
TGI (KM20L2 colon): 4.99 µM

CCSC(SCC)=C1C(=O)N(c2ccccc2)N=C1C
TGI (DMS 273 small cell lung): 32 µM
TGI (HOP-18 NSCLC): 29.4 µM
TGI (KM20L2 colon): 30.5 µM
TGI (LXFL 529 NSCLC): 22.6 µM
TGI (M19-MEL melanoma): 1.83 µM
TGI (SNB-78 CNS): 46.3 µM
TGI (XF 498 CNS): 22.7 µM

C[N+](C)(C)CC1CCCC(C[N+](C)(C)C)C1O (centres undefined)
TGI (DMS 114 small cell lung): > 100 µM
TGI (DMS 273 small cell lung): > 100 µM
TGI (HOP-18 NSCLC): > 100 µM
TGI (KM20L2 colon): > 100 µM
TGI (LXFL 529 NSCLC): > 100 µM
TGI (M19-MEL melanoma): > 100 µM
TGI (RXF-631 renal): > 100 µM
TGI (SNB-78 CNS): > 100 µM

CCCCCCCCCCCCOP(N)(=O)OCCCCCCCCCCCC
TGI (DMS 114 small cell lung): > 100 µM
TGI (DMS 273 small cell lung): > 100 µM
TGI (LXFL 529 NSCLC): > 100 µM
TGI (M19-MEL melanoma): > 100 µM
TGI (SNB-78 CNS): > 100 µM

COc1cccc(NC(=O)C(=O)C(C(C)=O)c2nc3ccc(Cl)cc3[nH]c2=O)c1 (centres undefined)
TGI (DMS 114 small cell lung): > 100 µM
TGI (DMS 273 small cell lung): > 100 µM
TGI (HOP-18 NSCLC): > 100 µM
TGI (KM20L2 colon): > 100 µM
TGI (LXFL 529 NSCLC): > 100 µM
TGI (M19-MEL melanoma): > 100 µM
TGI (RXF-631 renal): > 100 µM
TGI (SNB-78 CNS): > 100 µM

CNC(=O)CN(CC(N)=O)C(N)=O
TGI (DMS 273 small cell lung): > 100 µM
TGI (KM20L2 colon): > 100 µM
TGI (LXFL 529 NSCLC): > 100 µM
TGI (M19-MEL melanoma): > 100 µM
TGI (RXF-631 renal): > 100 µM
TGI (SNB-78 CNS): > 100 µM
TGI (XF 498 CNS): > 100 µM

Cc1c(C(=O)CSc2nc3ccccc3[nH]2)c(=O)n(-c2ccccc2)n1C
TGI (DMS 273 small cell lung): > 100 µM
TGI (KM20L2 colon): > 100 µM
TGI (LXFL 529 NSCLC): > 100 µM
TGI (M19-MEL melanoma): > 100 µM
TGI (SNB-78 CNS): > 100 µM
TGI (XF 498 CNS): > 100 µM

CCCCCCCCCCCCCc1nn[nH]n1
TGI (DMS 114 small cell lung): 38.4 µM
TGI (HOP-18 NSCLC): 28.2 µM
TGI (KM20L2 colon): 37.4 µM
TGI (LXFL 529 NSCLC): 31.2 µM
TGI (M19-MEL melanoma): 36.8 µM
TGI (RXF-631 renal): 29.3 µM
TGI (SNB-78 CNS): 43.6 µM

CCOc1ccc(C(CN2CCOCC2)C(C)=O)cc1OC (centres undefined)
TGI (DMS 114 small cell lung): 34 µM
TGI (DMS 273 small cell lung): 23.3 µM
TGI (HOP-18 NSCLC): 30.2 µM
TGI (KM20L2 colon): 35 µM
TGI (LXFL 529 NSCLC): 17 µM
TGI (M19-MEL melanoma): 34.1 µM
TGI (SNB-78 CNS): 66.8 µM
TGI (XF 498 CNS): 40.8 µM

COc1nc(NC2OC(COC(C)=O)C(OC(C)=O)C(OC(C)=O)C2OC(C)=O)c(-c2csc(N)n2)c(=O)n1C (centres undefined)
TGI (DMS 114 small cell lung): > 100 µM
TGI (HOP-18 NSCLC): > 100 µM
TGI (KM20L2 colon): > 100 µM
TGI (LXFL 529 NSCLC): > 100 µM
TGI (M19-MEL melanoma): > 100 µM
TGI (SNB-78 CNS): > 100 µM

COC(=O)/C(=N\NC(N)=S)C(C#N)c1ccccc1 (centres undefined)
TGI (DMS 114 small cell lung): > 100 µM
TGI (KM20L2 colon): > 100 µM
TGI (LXFL 529 NSCLC): > 100 µM
TGI (M19-MEL melanoma): > 100 µM
TGI (SNB-78 CNS): > 100 µM
TGI (XF 498 CNS): > 100 µM

Cc1ccc(NC(=O)CC(=O)N2N=C(N(CCC#N)c3cccc(C)c3)CC2c2ccccc2)cc1 (centres undefined)
TGI (DMS 114 small cell lung): > 100 µM
TGI (DMS 273 small cell lung): > 100 µM
TGI (HOP-18 NSCLC): > 100 µM
TGI (KM20L2 colon): > 100 µM
TGI (LXFL 529 NSCLC): > 100 µM
TGI (M19-MEL melanoma): > 100 µM
TGI (SNB-78 CNS): > 100 µM

CCC1CNC(=O)CC1CC(=O)OC (centres undefined)
TGI (DMS 114 small cell lung): > 100 µM
TGI (KM20L2 colon): > 100 µM
TGI (SNB-78 CNS): > 100 µM

COc1ccccc1NC(=O)C(CC(C(=O)Nc1ccccc1OC)/C(C)=N/Nc1ccc([N+](=O)[O-])cc1[N+](=O)[O-])/C(C)=N/Nc1ccc([N+](=O)[O-])cc1[N+](=O)[O-] (centres undefined)
TGI (DMS 273 small cell lung): > 100 µM
TGI (HOP-18 NSCLC): > 100 µM
TGI (KM20L2 colon): > 100 µM
TGI (LXFL 529 NSCLC): > 100 µM
TGI (M19-MEL melanoma): > 100 µM
TGI (RXF-631 renal): > 100 µM
TGI (SNB-78 CNS): > 100 µM
TGI (XF 498 CNS): > 100 µM
